According to patent publication US5952390A, “10-substituted 1,8-dihydroxy-9(10H) anthracenone pharmaceuticals” (Teva Pharmaceutical Industries Ltd., priority 1998, dated 1999):
Read-outs that look alike come from different tables or passages of the source.

Tests used:
[1] = Reducing activity toward DPPH; conditions: Table I (Addendum); equimolar amount of test compound
Procedure: This assay followed generally the procedures of Blois, M. S., "Antioxidant Determinations by the Use of a Stable Free Radical", Nature, 181, 1199-1200 (1958) and Kato, K. et al., "Studies on Scavengers of Active Oxygen Species. 1. Synthesis and Biological Activity of 2-O-Alkylascorbic Acids", J. Med. Chem., 31, 793-798 (1988). In time studies, 1 ml of test compound solution (10^-4 M) was added to 1 ml of DPPH solution (10^-4 M), each in acetone/PBS (1+1 V/V), and the reduction of DPPH was followed spectrophotometrically at 516 nm. Plots of the reciprocal of DPPH concentrations against time gave straight lines, and the second-orderrate constants were obtained from the slopes and are expressed as mean values (n=3-6). In the cases where DPPH was very fast approximate values are given and expressed as kDPPH >100 or kDPPH >>100M^-1s^-1.
Because a radical scavenging antioxidant reacts rapidly with the stable free radical 2,2-diphenyl-1-picrylhydrazyl (DPPH), Blois, M. S., "Antioxidant Determination by the Use of a Stable Free Radical", Nature, 181, 1199-1200 (1958); Kato, K. et al., "Studies on Scavengers of Active Oxygen Species. I. Synthesis and Biological Activity of 2-O-Alkylascorbic Acids", J. Med. Chem., 31, 793-798 (1988), the reactivities of the new compounds with DPPH were determined by decrease in absorbance at 516 nm.

[2] = Degradation of 2-deoxy-D-ribose (hydroxyl radical formation); conditions: Table I (Addendum); controls: <0.1; 75 μM compound per method
Procedure: This assay followed generally the procedures of Gutteridge, J. M. C., "Reactivity of Hydroxyl and Hydroxyl-Like Radicals Discriminated by Release of Thiobarbituric Acid-Reactive Material from Deoxy Sugars, Nucleosides and Benzoate", Biochem. J., 224, 761-767 (1984) and of Laughton, M. J. et al., "Antioxidant and Prooxidant Actions of the Plant Phenolics Quercetin, Gossypol and Myricetin", Biochem. Pharmacol., 38, 2859-2865 (1989). The following reagents were added to glass tubes in the order and at the final concentrations stated. 0.3 ml KH2 PO4 -KOH buffer, pH 7.4 (30 mM), 0.2 ml H2 O bidist., 0.2 ml 2-deoxy-D-ribose (2 mM), 0.2 ml FeCl3 .cndot.6 H2 O (0.1 mM), 0.1 ml anthracenone derivative (75 μM). Stock solutions of the compounds were made up fresh before use. Appropriate blanks and controls with the vehicle (acetonitrile) were conducted. The final reaction volumes were standardized to 1.0 ml. The reaction mixtures were incubated for 2 h at 37° C. in a shaking water bath. 1.0 ml of 2.8% (w/v) trichloroacetic acid and 1.0 ml of 1% (w/v in 0.05 N NaOH) 2-thiobarbituric acid (TBA) were added, and the samples were heated at 100° C. for 15 min and then cooled in an ice bath (5 min). Then 2.0 ml of the reaction mixtures were treated with 0.05 ml of 36% (w/v) HCl and 2.0 ml of 1-butanol and the mixtures were vigorously shaken in a vortex mixer (Heidolph) for 15 s. The organic layer was separated by centrifugation at 3000 rpm (15 min) and the absorbance at 532 nm was measured against butanol. […]
The biological assay methods were as follows: LDH release as described in Muller K, Huang H-S, Wiegrebe W, J. Med. Chem. 39, 3132-3138 (1996); bovine PMNL 5-LO assay as described in Muller K, Gurster D, Piwek S, Wiegrebe W, J. Med. Chem. 36, 4099-4107 (1993); and degradation of 2-deoxy-D-ribose as described in Muller K, Gurster D, Biochem. Pharmacol. 46, 1695-1704 (1993). […] Extracellular LDH activity was measured using the UV method with pyruvate and NADH and is expressly in mU/ml. […]

5-LO in bovine PMNL = biological target: T1, 5-LO in bovine PMNL (Bos taurus, UniProt F1MQ78); experiment: Bovine PMNL 5-lipoxygenase assay (inhibition of 5-HETE and LTB4 biosynthesis); type: cell-based; conditions: at 30 μM
T1 construct: endogenous in cells; host or cells: polymorphonuclear leukocytes isolated from bovine blood
T1 sequence (F1MQ78 1-674): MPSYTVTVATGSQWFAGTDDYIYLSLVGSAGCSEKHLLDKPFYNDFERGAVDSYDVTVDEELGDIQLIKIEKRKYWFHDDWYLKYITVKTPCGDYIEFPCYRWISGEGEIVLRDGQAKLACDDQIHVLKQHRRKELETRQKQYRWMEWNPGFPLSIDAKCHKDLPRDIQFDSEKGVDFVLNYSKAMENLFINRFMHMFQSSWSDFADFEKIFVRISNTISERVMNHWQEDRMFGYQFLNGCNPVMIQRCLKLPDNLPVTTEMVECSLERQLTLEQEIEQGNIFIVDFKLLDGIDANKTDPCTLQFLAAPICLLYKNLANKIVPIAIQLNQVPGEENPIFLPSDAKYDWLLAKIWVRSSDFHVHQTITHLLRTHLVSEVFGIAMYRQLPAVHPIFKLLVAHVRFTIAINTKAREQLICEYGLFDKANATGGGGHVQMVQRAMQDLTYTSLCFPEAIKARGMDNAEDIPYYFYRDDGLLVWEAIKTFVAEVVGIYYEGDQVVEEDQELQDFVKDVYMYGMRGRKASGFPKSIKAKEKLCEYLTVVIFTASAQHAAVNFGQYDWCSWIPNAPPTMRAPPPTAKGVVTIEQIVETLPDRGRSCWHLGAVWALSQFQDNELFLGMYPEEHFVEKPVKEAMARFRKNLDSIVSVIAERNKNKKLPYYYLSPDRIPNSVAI

skin = conditions: topical/therapeutic application; cited from earlier work

deoxyribose degradation [2]: 0.24 ± 0.03 μmol MDA/mmol
inhibition at 30 µM (5-LO in bovine PMNL; PMNL, Table I (Addendum), read-out: 5-LO percent inhibition (value in parentheses)): 38%
inhibition at 30 µM (5-LO in bovine PMNL; bovine PMNL, read-out: inhibition at 30 μM): 38%
SMILES: CCCC(=O)C1c2cccc(O)c2C(=O)c2c(O)cccc21 [Butantrone, 10-Butyryl-Dithranol]
kDPPH [1]: 7.0 ± 0.6 M⁻¹ s⁻¹
irritation, in words (skin): commonly elicits a widespread and delayed irritation effect
